Values of other authors in patent US11865103B2, “Methods of treating disorders associated with glycosylation defective proteins” (CASE WESTERN RESERVE UNIVERSITY, priority 2016, dated 2024).

Test system: TgAC1; Clrn1^N48K/N48K mouse model
Conditions: cited from earlier work

Q: Which “Effect on hearing loss” value does the source give for `CC(C)(O)Cn1nc(-c2ccccc2)c2c(Cl)c(-c3ccccc3)nnc21` [BF844] here?
A: The value was “mitigate hearing loss”.
